Data on 42 molecules can be found in ChEMBL document CHEMBL4017548, “Molecular Hybridization of Potent and Selective γ-Hydroxybutyric Acid (GHB) Ligands: Design, Synthesis, Binding Studies, and Molecular Modeling of Novel 3-Hydroxycyclopent-1-enecarboxylic Acid (HOCPCA) and trans-γ-Hydroxycrotonic Acid (T-HCA) Analogs” (J Med Chem, 2017).

The structures appear in SMILES notation. Where only a bound is given, the exact number is not on record here.

The nature of this test: Displacement of [3H]NCS-382 from GHB binding site in Sprague-Dawley rat brain synaptosomal membranes after 1 hr by scintillation counting method. (In general: In a radioligand displacement assay an active substance lowers the binding of a labelled ligand.)

`O=C(O)C1=CCCC1`: the Ki (in general, the dissociation constant of the complex between target and ligand, obtained from inhibition or displacement) was 31 µM; the pKi (in general, −log10 of the Ki, conventionally taken in molar units) came out at 4.51. Molecule `O=C(O)C#CCO` had a Ki of 4.3 µM and a negative-log Ki (pKi) of 5.5. With `O=C(O)C1=CC(O)CC1` (stereo not drawn), the inhibition constant Ki is 0.13 to 0.16 µM and the negative-log Ki (pKi) is 6.89.

Regarding `O=C(O)/C=C/C1(O)CCCCC1`, the inhibitory constant (Ki) stood at 4.3 µM and the negative logarithm of the Ki (pKi) was found to be 5.37. On to `O=C(O)C1=C(c2ccc(Cl)cc2)C(O)CC1` (stereo not drawn), for which the Ki was determined as 70 µM and the pKi is on record as 4.16.

The molecule `O=C(O)C#CC1(O)CCC1` gave a Ki of 1.6 µM and a pKi of 5.78.

As to `COc1ccc(C2=C(C(=O)O)CCC2O)cc1` (stereo not drawn), the Ki is more than 300 µM. The molecule `O=C(O)C1=CC(c2ccccc2)CC1` (stereo not drawn) returned an inhibition constant (Ki) of 16 µM and a pKi of 4.8. As for `O=C(O)C1=CC(c2ccc(OCc3ccccc3)cc2)CC1` (stereo not drawn), the inhibition constant Ki is 1.6 µM and the pKi is reported as 5.77. As to `CCC1=C(C(=O)O)CCC1O` (stereo not drawn), the Ki is more than 300 µM. On to `O=C(O)C1=CC(c2ccc(-c3ccccc3)cc2)CC1` (stereo not drawn), for which the inhibition constant (Ki) was 3.2 µM and the negative-log Ki (pKi) is reported as 5.49. Turning to `O=C(O)C1=C[C@H](O)CC1`, the affinity corresponds to a Ki of 0.11 µM. On to `O=C(O)[C@@H]1CC[C@@](O)(c2ccccc2)C1`, for which the affinity corresponds to a Ki of 53 µM and the pKi turned out to be 4.28.

Molecule `O=C(O)C1=C(c2ccccc2)C(O)CC1` (stereo not drawn) gave an inhibition constant Ki of 48 µM and a pKi of 4.32. For `O=C(O)C#CC1(O)CCCCC1` the same measures were 7.7 µM and 5.12. Regarding `O=C(O)C1=C(Cc2ccccc2)C(O)CC1` (stereo not drawn), the affinity, expressed as Ki, was 38 µM and the pKi was 4.43. In the case of `O=C(O)C1CC(O)C1` (stereo not drawn), the inhibition constant (Ki) turned out to be 70 µM and the pKi was 4.16. `Cc1ccc(C2=C(C(=O)O)CCC2O)cc1` (stereo not drawn) yielded a Ki of 157 µM and a pKi of 3.81. Take `O=C(O)/C=C/C1(O)CCCC1`: the Ki was 3.1 µM and the pKi was determined as 5.51.

The molecule `O=C(O)C1=C(c2ccc(Cl)c(Cl)c2)C(O)CC1` (stereo not drawn) gave an inhibition constant (Ki) of 62 µM and a pKi of 4.21. In the case of `O=C(O)/C=C/C(O)c1ccc(OCc2ccccc2)cc1` (stereo not drawn), the Ki amounted to 0.043 µM and the negative logarithm of the Ki (pKi) is on record as 7.43. Regarding `COc1cccc(CC2=C(C(=O)O)CCC2O)c1` (stereo not drawn), the Ki stood at 46 µM and the pKi was determined as 4.43. On to `O=C(O)C1=CC(c2ccccc2O)CC1` (stereo not drawn), for which the affinity corresponds to a Ki of 4.6 µM and the pKi worked out at 5.34. Regarding `CC1=C(C(=O)O)CCC1O` (stereo not drawn), the Ki came to 80 µM and the negative logarithm of the Ki (pKi) is 4.1. Molecule `O=C(O)C1=C[C@@H](O)CC1` came in with an inhibitory constant (Ki) of 1.4 µM. As to `O=C(O)C#CC1(O)CCCC1`, the inhibitory constant (Ki) was 2.7 µM and the pKi worked out at 5.57. As to `O=C(O)[C@@H]1CC[C@@](O)(c2ccc(-c3ccccc3)cc2)C1`, the Ki was found to be 0.51 µM and the negative-log Ki (pKi) is 6.29.

The molecule `O=C(O)C1CCC(O)C1` (stereo not drawn) came in with a Ki of 20 µM and a negative-log Ki (pKi) of 4.71.

`O=C(O)/C=C/C(O)c1ccc(OCc2ccc(Br)cc2)cc1` (stereo not drawn): the affinity, expressed as Ki, was 0.023 µM and the negative logarithm of the Ki (pKi) amounted to 7.64. Consider `O=C(O)/C=C/C1(O)CCC1`, for which the inhibition constant Ki came out at 3.5 µM and the pKi is on record as 5.47. With `C=CCC1=C(C(=O)O)CCC1O` (stereo not drawn), the Ki is more than 300 µM. Take `O=C(O)/C=C/C(O)c1ccc(CCc2ccccc2)cc1` (racemic): the affinity, expressed as Ki, was 0.042 µM and the pKi came out at 7.39. On the same counts, the results for `O=C(O)/C=C/C(O)c1ccc(Cc2ccccc2)cc1` (racemic) are 0.042 µM and 7.38. The molecule `O=C(O)C#CC(O)c1ccc(OCc2ccccc2)cc1` (racemic) yielded a Ki of 1.6 µM and a pKi of 5.8. In the case of `O=C(O)/C=C/C(O)c1ccc(-c2ccccc2)cc1` (racemic), the Ki came out at 0.075 µM and the pKi turned out to be 7.14. For `O=C(O)C#CC(O)Cc1ccccc1` (racemic) the same measures were 3.5 µM and 5.45. `O=C(O)[C@@H]1CCC[C@@H](O)C1` (relative stereo) returned an inhibition constant (Ki) of 28 µM and a pKi of 4.55. `O=C(O)[C@H]1CCC[C@@H](O)C1` (relative stereo) gave a Ki of 35 µM and a negative-log Ki (pKi) of 4.45. `O=C(O)[C@]12CC[C@@H](O)[C@H]1C2` (relative stereo) yielded a Ki of more than 100 µM. Molecule `O=C(O)/C=C/C(O)c1ccc(Cc2ccccc2)cc1` (single isomer, unassigned; (+)) registered an inhibitory constant (Ki) of 0.03 µM and a pKi of 7.47. With `O=C(O)/C=C/C(O)c1ccc(Cc2ccccc2)cc1` (stereo in doubt; (-)-9e), the inhibitory constant (Ki) came out at 1.16 µM and the pKi is 5.97. In the case of `O=C(O)CCCO` [OXYBATE], the Ki worked out at 3.6 µM and the pKi stood at 5.44.
